Test results from patent US9980943B2, “Methods of treating muscular dystrophy” (BOARD OF REGENTS OF THE NEVADA SYSTEM OF HIGHER EDUCATION, …, priority 2013, dated 2018).

Experiments:
Assay type in all cases: cell-based, mouse
[1] = test system: α7 integrin (LacZ reporter in α7βgal+/− myoblasts); test: Myoblast α7+/LacZ integrin FDG assay (Burkin assay in myoblasts, 96-well); details: 96-well; for Burkin Assay in Myoblasts, signal relative to DMSO: α7+/LacZ myoblasts; for Burkin Assay in Myoblasts, value relative to DMSO: SU9516 analogs, N=3-6
[2] = test system: α7 integrin (LacZ reporter in α7+/LacZ myotubes); test: Myotube α7 integrin FDG assay (Burkin assay in myotubes, 96-well); details: for Burkin Assay in Myotubes, value relative to DMSO: SU9516 analogs, 96-well, N=3-6
[3] = test system: β-galactosidase in CMV-LacZ C2C12 myoblasts; test: CMV-LacZ secondary screen in C2C12 myoblasts (β-Gal stabilizing assay); details: for CMV-LACZ in Myoblasts (β-galactosidase activity relative to DMSO): CMV-LacZ C2C12 myoblasts; for CMV-LACZ in Myoblasts, value relative to DMSO: SU9516 analogs, C2C12 CMV-LacZ, N=2
In short: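 β-gal stabilization was measured in C2C12 myoblasts or myotubes stably transfected with a CMV-driven LacZ construct, using the FDG β-gal assay. Compounds were tested in dose-response at 0.5, 1, 5, 10, 20 and 40 μM, with two replicates per point.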

[4] = test system: β-galactosidase in CMV-LacZ C2C12 myotubes; test: CMV-LacZ secondary screen in C2C12 myotubes (β-Gal stabilizing assay); details: for CMV-LACZ in Myotubes, signal relative to DMSO: C2C12 CMV-LacZ myotubes, fold relative to DMSO; for CMV-LACZ in Myotubes, value relative to DMSO: SU9516 analogs, C2C12 CMV-LacZ, N=2
In short: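 Stable CMV-LacZ C2C12 clone; six-point curve 0.5–40 μM; duplicates.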

## CCCc1nnc(SCC(=O)NC2CCCC2)n1CCOC [MLS001217935-01]
[1]; 0.5 uM
  Burkin Assay in Myoblasts, signal relative to DMSO: 1.162
[1]; 1 uM
  Burkin Assay in Myoblasts, signal relative to DMSO: 1.076
[1]; 5 uM
  Burkin Assay in Myoblasts, signal relative to DMSO: 0.9106
[1]; 10 uM
  Burkin Assay in Myoblasts, signal relative to DMSO: 0.893
[1]; 20 uM
  Burkin Assay in Myoblasts, signal relative to DMSO: 0.8002
[1]; 40 uM
  Burkin Assay in Myoblasts, signal relative to DMSO: 0.587
[2]; 0.5 uM
  Burkin Assay in Myotubes, α7 integrin LacZ reporter signal relative to DMSO: 0.9075
[2]; 1 uM
  Burkin Assay in Myotubes, α7 integrin LacZ reporter signal relative to DMSO: 1.018
[2]; 5 uM
  Burkin Assay in Myotubes, α7 integrin LacZ reporter signal relative to DMSO: 0.8812
[2]; 10 uM
  Burkin Assay in Myotubes, α7 integrin LacZ reporter signal relative to DMSO: 1.081
[2]; 20 uM
  Burkin Assay in Myotubes, α7 integrin LacZ reporter signal relative to DMSO: 0.7887
[2]; 40 uM
  Burkin Assay in Myotubes, α7 integrin LacZ reporter signal relative to DMSO: 0.5246
[3]; 0.5 uM
  CMV-LACZ in Myoblasts (β-galactosidase activity relative to DMSO): 1.1729
[3]; 1 uM
  CMV-LACZ in Myoblasts (β-galactosidase activity relative to DMSO): 1.1167
[3]; 5 uM
  CMV-LACZ in Myoblasts (β-galactosidase activity relative to DMSO): 1.0175
[3]; 10 uM
  CMV-LACZ in Myoblasts (β-galactosidase activity relative to DMSO): 1.0465
[3]; 20 uM
  CMV-LACZ in Myoblasts (β-galactosidase activity relative to DMSO): 0.7859
[3]; 40 uM
  CMV-LACZ in Myoblasts (β-galactosidase activity relative to DMSO): 0.5381
[4]; 0.5 uM
  CMV-LACZ in Myotubes, signal relative to DMSO: 0.9705
[4]; 1 uM
  CMV-LACZ in Myotubes, signal relative to DMSO: 1.1381
[4]; 5 uM
  CMV-LACZ in Myotubes, signal relative to DMSO: 1.1473
[4]; 10 uM
  CMV-LACZ in Myotubes, signal relative to DMSO: 0.9648
[4]; 20 uM
  CMV-LACZ in Myotubes, signal relative to DMSO: 1.0547
[4]; 40 uM
  CMV-LACZ in Myotubes, signal relative to DMSO: 0.9495

## CCN(CC)CCNC(=O)c1c(C)[nH]c(/C=C2\C(=O)Nc3ccc(F)cc32)c1C [NCGC00164631-04]
[1]; 0.5 uM
  Burkin Assay in Myoblasts, value relative to DMSO: 1.023
[1]; 1 uM
  Burkin Assay in Myoblasts, value relative to DMSO: 1.011
[1]; 5 uM
  Burkin Assay in Myoblasts, value relative to DMSO: 0.529
[1]; 10 uM
  Burkin Assay in Myoblasts, value relative to DMSO: 0.08696
[1]; 20 uM
  Burkin Assay in Myoblasts, value relative to DMSO: 0.01476
[1]; 40 uM
  Burkin Assay in Myoblasts, value relative to DMSO: 0.01361
[2]; 0.5 uM
  Burkin Assay in Myotubes, value relative to DMSO: 0.9761
[2]; 1 uM
  Burkin Assay in Myotubes, value relative to DMSO: 0.9998
[2]; 5 uM
  Burkin Assay in Myotubes, value relative to DMSO: 0.7739
[2]; 10 uM
  Burkin Assay in Myotubes, value relative to DMSO: 0.2132
[2]; 20 uM
  Burkin Assay in Myotubes, value relative to DMSO: 0.08218
[2]; 40 uM
  Burkin Assay in Myotubes, value relative to DMSO: 0.08093
[3]; 0.5 uM
  CMV-LACZ in Myoblasts, value relative to DMSO: 0.8225
[3]; 5 uM
  CMV-LACZ in Myoblasts, value relative to DMSO: 0.6842
[3]; 10 uM
  CMV-LACZ in Myoblasts, value relative to DMSO: 0.4405
[3]; 20 uM
  CMV-LACZ in Myoblasts, value relative to DMSO: 0.2323
[3]; 40 uM
  CMV-LACZ in Myoblasts, value relative to DMSO: 0.1827
[4]; 0.5 uM
  CMV-LACZ in Myotubes, value relative to DMSO: 1.1336
[4]; 1 uM
  CMV-LACZ in Myotubes, value relative to DMSO: 0.9164
[4]; 5 uM
  CMV-LACZ in Myotubes, value relative to DMSO: 0.8803
[4]; 10 uM
  CMV-LACZ in Myotubes, value relative to DMSO: 0.3804
[4]; 20 uM
  CMV-LACZ in Myotubes, value relative to DMSO: 0.6490
[4]; 40 uM
  CMV-LACZ in Myotubes, value relative to DMSO: 0.6690

## O=C(Nc1ccccc1OC(=O)c1ccc(Cl)cc1)c1ccc(Cl)cc1 [MLS000573208-01]
[1]; 0.5 uM
  Burkin Assay in Myoblasts, signal relative to DMSO: 1.031
[1]; 1 uM
  Burkin Assay in Myoblasts, signal relative to DMSO: 1.015
[1]; 5 uM
  Burkin Assay in Myoblasts, signal relative to DMSO: 0.9523
[1]; 10 uM
  Burkin Assay in Myoblasts, signal relative to DMSO: 0.8121
[1]; 20 uM
  Burkin Assay in Myoblasts, signal relative to DMSO: 1.632
[1]; 40 uM
  Burkin Assay in Myoblasts, signal relative to DMSO: 0.6235
[2]; 0.5 uM
  Burkin Assay in Myotubes, α7 integrin LacZ reporter signal relative to DMSO: 0.9453
[2]; 1 uM
  Burkin Assay in Myotubes, α7 integrin LacZ reporter signal relative to DMSO: 1.007
[2]; 5 uM
  Burkin Assay in Myotubes, α7 integrin LacZ reporter signal relative to DMSO: 0.98
[2]; 10 uM
  Burkin Assay in Myotubes, α7 integrin LacZ reporter signal relative to DMSO: 1.045
[2]; 20 uM
  Burkin Assay in Myotubes, α7 integrin LacZ reporter signal relative to DMSO: 0.8239
[2]; 40 uM
  Burkin Assay in Myotubes, α7 integrin LacZ reporter signal relative to DMSO: 0.5966
[3]; 0.5 uM
  CMV-LACZ in Myoblasts (β-galactosidase activity relative to DMSO): 1.0197
[3]; 1 uM
  CMV-LACZ in Myoblasts (β-galactosidase activity relative to DMSO): 0.9594
[3]; 5 uM
  CMV-LACZ in Myoblasts (β-galactosidase activity relative to DMSO): 1.1030
[3]; 10 uM
  CMV-LACZ in Myoblasts (β-galactosidase activity relative to DMSO): 0.8678
[3]; 20 uM
  CMV-LACZ in Myoblasts (β-galactosidase activity relative to DMSO): 0.6626
[3]; 40 uM
  CMV-LACZ in Myoblasts (β-galactosidase activity relative to DMSO): 0.9289
[4]; 0.5 uM
  CMV-LACZ in Myotubes, signal relative to DMSO: 0.9547
[4]; 1 uM
  CMV-LACZ in Myotubes, signal relative to DMSO: 1.3021
[4]; 5 uM
  CMV-LACZ in Myotubes, signal relative to DMSO: 1.1765
[4]; 10 uM
  CMV-LACZ in Myotubes, signal relative to DMSO: 0.8913
[4]; 20 uM
  CMV-LACZ in Myotubes, signal relative to DMSO: 0.9633
[4]; 40 uM
  CMV-LACZ in Myotubes, signal relative to DMSO: 0.9478
